Laboratory results taken from the NIST ThermoML archive (doi:10.1016/j.fluid.2008.09.004).

How the values were obtained:
[1] = xn = mol fraction of the nth substance listed; conditions: 101 kPa, Liquid, Vibrating tube method
[2] = molar heat capacity at constant pressure; xn = mol fraction of the nth substance listed; conditions: 101 kPa, Liquid, Small sample (50 mg) DSC

CCCCn1cc[n+](C)c1.F[B-](F)(F)F [1-butyl-3-methylimidazolium tetrafluoroborate] + CCO
Conditions	mass density, [1] [kg/m3]	molar heat capacity at constant pressure, [2] [J/K/mol]
293.15 K, x1 = 0.0987	903	150.5
293.15 K, x1 = 0.1923	976.5	174.4
293.15 K, x1 = 0.3004	1037.8	197.8
293.15 K, x1 = 0.3885	1075.8	219.8
293.15 K, x1 = 0.4865	1108.8	240.1
293.15 K, x1 = 0.573	1132.8	258.3
293.15 K, x1 = 0.6738	1155.4	281.8
293.15 K, x1 = 0.7531	1170.9	300.8
293.15 K, x1 = 0.8821	1191.8	330.9
298.15 K, x1 = 0.0987	898.9	150
298.15 K, x1 = 0.1923	972.5	173.6
298.15 K, x1 = 0.3004	1033.9	198.8
298.15 K, x1 = 0.3885	1071.9	219.6
298.15 K, x1 = 0.4865	1105	241.2
298.15 K, x1 = 0.573	1129.1	259.7
298.15 K, x1 = 0.6738	1151.7	283.5
298.15 K, x1 = 0.7531	1167.2	302.6
298.15 K, x1 = 0.8821	1188.2	333
303.15 K, x1 = 0.0987	894.8	149.9
303.15 K, x1 = 0.1923	968.5	173.5
303.15 K, x1 = 0.3004	1030	199.7
303.15 K, x1 = 0.3885	1068	219.9
303.15 K, x1 = 0.4865	1101.2	242.3
303.15 K, x1 = 0.573	1125.3	261.1
303.15 K, x1 = 0.6738	1148	285.2
303.15 K, x1 = 0.7531	1163.5	304.3
303.15 K, x1 = 0.8821	1184.6	335.1
308.15 K, x1 = 0.0987	890.8	150.3
308.15 K, x1 = 0.1923	964.6	174.2
308.15 K, x1 = 0.3004	1026.1	200.6
308.15 K, x1 = 0.3885	1064.2	220.6
308.15 K, x1 = 0.4865	1097.4	243.4
308.15 K, x1 = 0.573	1121.6	262.4
308.15 K, x1 = 0.6738	1144.4	286.9
308.15 K, x1 = 0.7531	1159.9	306.2
308.15 K, x1 = 0.8821	1181	337.2
313.15 K, x1 = 0.0987	886.6	151.1
313.15 K, x1 = 0.1923	960.5	175.6
313.15 K, x1 = 0.3004	1022.2	201.4
313.15 K, x1 = 0.3885	1060.4	221.7
313.15 K, x1 = 0.4865	1093.6	244.4
313.15 K, x1 = 0.573	1117.9	263.7
313.15 K, x1 = 0.6738	1140.7	288.5
313.15 K, x1 = 0.7531	1156.3	308
313.15 K, x1 = 0.8821	1177.4	339.3
318.15 K, x1 = 0.0987	882.4	152.4
318.15 K, x1 = 0.1923	956.5	177.8
318.15 K, x1 = 0.3004	1018.2	202.3
318.15 K, x1 = 0.3885	1056.5	223.3
318.15 K, x1 = 0.4865	1089.8	245.6
318.15 K, x1 = 0.573	1114.2	265.1
318.15 K, x1 = 0.6738	1137.1	290.1
318.15 K, x1 = 0.7531	1152.7	309.9
318.15 K, x1 = 0.8821	1173.8	341.4
